Experimental data: US20220151979A1, “COMPOSITION FOR PREVENTION OR TREATMENT OF CARDIOVASCULAR AND METABOLIC DISEASE COMPRISING NORANHYDROICARITIN” (SEOUL NATIONAL UNIVERSITY HOSPITAL, priority 2019, published 2022)

Columns and labels:
PCSK9 mRNA = PCSK9 mRNA by RealTime-PCR in HepG2 cells; type: cell-based, human; settings: 24 hours
Excerpt: Proprotein convertase subtilisin/kexin type 9 (PCSK9) is an enzyme involved in lipid metabolism and is attached to low-density lipoprotein receptor (LDLR) bound to low-density lipoprotein (LDL) in the liver or other cell membranes to degrade LDLR so that LDLR cannot be regenerated into the cell membrane and cannot absorb extracellular LDL. Therefore, inhibition of PCSK9 production increases LDLR, decreases extracellular LDL, and lowers cholesterol levels, and thus lipid metabolism-related diseases may be alleviated. Therefore, in order to confirm the PCSK9 production inhibitory effect of noranhydroicaritin, HepG2 cells were treated with noranhydroicaritin at various concentrations, and then the relative quantity of PCSK9 mRAN was confirmed through RealTime-PCR.
Specifically, HepG2 cells were suspended at a concentration of 2.5×10^5 cells/mL, and 1 mL thereof was inoculated into each well of a […], and then maintained for one day. The HepG2 cells in the well plate were treated with kaempferol and noranhydroicaritin at concentrations of 2.5 μM, 5 μM, 10 μM, and 20 μM, and incubated for 24 hours, and then RNA was recovered, quantified, and stored at −70° C. Thereafter, cDNA was synthesized from the RNA and the quantity of PCSK9 mRNA was confirmed through RealTime-PCR analysis. The group treated only with DMSO was used as a negative control. […]

PCSK9 promoter = assay: PCSK9 promoter-reporter luciferase assay in HEK293T cells; type: cell-based, human; settings: pGL4.14-PCSK9-transfected HEK293T cells, 2.5-20 μM, 18 hours
Experimental: In order to confirm the PCSK9 gene expression inhibitory effect of noranhydroicaritin, HEK293T cells were treated with noranhydroicaritin at various concentrations, and it was confirmed whether the expression of PCSK9 was inhibited through a luciferase assay.
i) A primer was prepared to contain KpnI and XhoI restriction enzyme sites in the PCSK9 promoter gene region, and then PCR (polymerase chain reaction) and electrophoresis on an agarose gel were performed to isolate PCSK9 promoter region DNA. A pGL4.14-[luc2/Hygro] vector containing a firefly luciferase as a reporter gene was treated with the same restriction enzymes (KpnI and XhoI), and then isolated via agarose gel electrophoresis and gel extraction. […]
ii) In order to measure the transcriptional activity of the PCSK9 promoter gene, HEK293T cells were transfected with pGL4.14-PCSK9, and then the luciferase activity of the cell extract was measured. […]
iii) After 18 hours of incubation, cells were washed with PBS one time, an appropriate amount of luciferase reagent was added to each well, then the plate was shaken for 15 min, the supernatant was obtained, and the transcriptional activity was measured. Passive lysis buffer was used, and the luciferase activity was measured using a microplate luminometer (Tecan). […]

PPARγ = PPARγ expression in HepG2 cells (RealTime-PCR, immunohistochemistry); type: cell-based, human
Experimental: In order to confirm the effect of increasing the expression of PPARα and PPARγ of noranhydroicaritin, PCR using PPARα primers and immunohistochemistry targeting PPARα and PPARγ were performed to confirm the expression levels.
Using cDNA synthesized with RNA according to the method of Example 4, the quantities of PPARα mRNA and PPARγ mRNA were confirmed through RealTime-PCR analysis. The group treated only with DMSO was used as a negative control. For immunohistochemistry, HepG2 cells were attached to a slide chamber, then treated with noranhydroicaritin at 20 μM, and incubated. After fixation with formalin, the HepG2 cells were stained with antibodies targeting PPARα and PPARγ, and treated with DAPI to stain nuclei, and the degree of fluorescent expression was confirmed using a confocal microscope.

atherosclerotic plaque = assay: Gross plaque imaging in PCSK9-injected mouse carotid-ligation arteriosclerosis model; type: in vivo; settings: AAV-PCSK9 virus, high-fat diet, 10 μg/g/day, 3 weeks after ligation, vehicle group about 45%
Experimental: By ligation to the carotid artery of 6- to 8-week-old mice, mechanical stress was applied to induce inflammation, thrombosis, oxidative stress, and shear stress, and the function and structure of the external carotid (EC) were changed to prepare an atherosclerosis model (FIG. 13). Specifically, ligation was performed on the left common carotid artery (LCA) after abdominal anesthesia by performing carotid artery ligation on mice fed a high-fat diet for one week. Partial ligation of three branches in the LCA, the external carotid artery (ECA), the internal carotid artery (ICA), and the occipital artery (OA) was performed. At this time, ICA and OA were ligated, and ECA was ligated separately. In mice subjected to ligation, the amount of blood flow to the heart decreased and the direction of blood flow changed, whereby an atherosclerosis model was prepared. Carotid artery ligation was performed one week after injection of AAV-PCSK9 Virus (1×10^11 IFU/mL) and noranhydroicaritin (10 μg/g/day). After 3 weeks of ligation, it was confirmed whether the atherosclerosis model was completed, and gross plaque imaging and immunofluorescence were performed to confirm the arteriosclerosis inhibitory effect of noranhydroicaritin.

SMILES: CC(C)=CCc1c(O)cc(O)c2c(=O)c(O)c(-c3ccc(O)cc3)oc12 [Noranhydroicaritin, noranhydroicaritin]
- PCSK9 production inhibitory effect (quantity of PCSK9 mRNA) (PCSK9 mRNA; 2.5 μM and 5 μM): remarkably superior to that of the control
- PCSK9 production inhibitory effect (quantity of PCSK9 mRNA) (PCSK9 mRNA; same concentration as control): superior to that of atorvastatin or rosuvastatin
- PCSK9 luciferase activity (PCSK9 promoter): decreased in a noranhydroicaritin concentration-dependent manner
- expression of PPARγ (PPARγ): increased in a concentration-dependent manner
- atherosclerotic plaque-formed area (atherosclerotic plaque): about 20%
